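Test compounds were applied to cells in 96-well plates for 48 hours at 5 doses. Here, GI50 denotes the concentration required for 50% inhibition of growth. TGI: total growth inhibition.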
Tests used:
Assay in all cases: inhibition of tumour cell growth, NCI panel, 48 h
SW-620 colon = test system: SW-620 colon
UACC-62 melanoma = test system: UACC-62 melanoma
ACHN renal = test system: ACHN renal
SF-295 CNS = test system: SF-295 CNS
NCI-H226 lung = test system: NCI-H226 lung
EKVX NSCLC = test system: EKVX NSCLC
COLO 205 colon = test system: COLO 205 colon
HCT-15 colon = test system: HCT-15 colon
HOP-62 NSCLC = test system: HOP-62 NSCLC
A549 NSCLC = test system: A549 NSCLC

SMILES	GI50 (SW-620 colon)	TGI (SW-620 colon)	GI50 (UACC-62 melanoma)	TGI (UACC-62 melanoma)	GI50 (ACHN renal)	TGI (ACHN renal)	GI50 (SF-295 CNS)	TGI (SF-295 CNS)	GI50 (NCI-H226 lung)	TGI (NCI-H226 lung)	GI50 (EKVX NSCLC)	TGI (EKVX NSCLC)	GI50 (COLO 205 colon)	TGI (COLO 205 colon)	GI50 (HCT-15 colon)	TGI (HCT-15 colon)	GI50 (HOP-62 NSCLC)	TGI (HOP-62 NSCLC)	GI50 (A549 NSCLC)	TGI (A549 NSCLC)
COC(=O)CCC1=C(C)/C(=C/c2[nH]c(-c3ccc[nH]3)cc2OC)N=C1C	0.333 µM	1.67 µM	0.295 µM	0.894 µM	0.84 µM	3.75 µM	0.833 µM	3.64 µM	0.38 µM	1.6 µM	1.46 µM	10.8 µM	0.618 µM	1.72 µM	0.265 µM	1.95 µM	0.454 µM	1.53 µM	0.565 µM	6.32 µM
O=C1CCCN1CC#CCN1CCCC1	> 100 µM	> 100 µM	> 100 µM	> 100 µM	> 100 µM	> 100 µM	> 100 µM	> 100 µM	> 100 µM	> 100 µM	> 100 µM	> 100 µM	> 100 µM	> 100 µM	> 100 µM	> 100 µM	> 100 µM	> 100 µM	> 100 µM	> 100 µM
CCCCCCN(CCCCCC)CC(O)c1ccc2c3c(cccc13)CC2 (configuration not stated)	3.17 µM	14.9 µM	4.4 µM	17.5 µM	10 µM	23.5 µM	1.17 µM	12 µM	8.06 µM	22.9 µM	6.64 µM	23.1 µM	5.56 µM	19.8 µM	6.63 µM	25.1 µM	12.1 µM	24.7 µM	10.4 µM	24 µM
COC(=O)C1=C(CS(=O)c2ccccc2[N+](=O)[O-])ON(C)C1c1ccccc1 (configuration not stated)		88.6 µM		> 100 µM		> 100 µM		> 100 µM		> 100 µM		> 100 µM		> 100 µM		76.3 µM		> 100 µM		> 100 µM
CC(=O)Nc1ccc(S(=O)(=O)NNC(=O)c2cccnc2Nc2ccc(Cl)cc2)cc1	7.64 µM	> 100 µM	8.85 µM	> 100 µM	52.2 µM	> 100 µM	3.49 µM	> 100 µM	42.3 µM	> 100 µM	48.9 µM	> 100 µM	10.3 µM	57 µM	13.7 µM	> 100 µM	> 100 µM	> 100 µM	32.4 µM	> 100 µM
C=C1C(=O)O[C@H]2C[C@@]3(C)[C@H](O)CCC(=C)[C@@H]3[C@@H](OC(C)=O)[C@H]12		> 100 µM		37.3 µM		12.9 µM		40.5 µM		49.2 µM		38.1 µM		7.06 µM		7.93 µM		32.8 µM		33.7 µM
O=C1CC(=O)OC(c2ccc([N+](=O)[O-])cc2)O1	1.68 µM	3.41 µM	2.14 µM	5.54 µM	1.68 µM	3.16 µM	4.85 µM	14 µM	2.07 µM	5.5 µM	3.56 µM	18.3 µM	1.79 µM	3.41 µM	2.25 µM	7.15 µM	2.47 µM	6.79 µM	2.6 µM	7.78 µM
COC1CC(OC(=O)c2ccccc2)C(OC(=O)c2ccccc2)C(C)O1 (configuration not stated)		> 100 µM		> 100 µM		> 100 µM		> 100 µM		> 100 µM		> 100 µM		> 100 µM		> 100 µM		> 100 µM		> 100 µM
O=C1Nc2cccc3cc(NCC(O)CCl)cc1c23 (configuration not stated)		> 100 µM		> 100 µM		> 100 µM		> 100 µM		> 100 µM		> 100 µM		> 100 µM		> 100 µM		> 100 µM		> 100 µM
Cc1ccc2c(c1)C(c1cccc3ccccc13)OC2=O (configuration not stated)		> 100 µM		> 100 µM		> 100 µM		> 100 µM		> 100 µM		> 100 µM		> 100 µM		> 100 µM		81.7 µM		> 100 µM
Cc1cc(N/N=C/c2nc(-c3ccc(Cl)cc3)oc2C)c2cc(Cl)ccc2n1	1.56 µM	3.51 µM	1.8 µM	3.54 µM	1.95 µM	3.78 µM	10.2 µM	22.6 µM	17 µM	38.3 µM	14.6 µM	28.3 µM	2.31 µM	6.57 µM	1.68 µM	3.66 µM	1.92 µM	3.76 µM	1.76 µM	3.6 µM
COc1ccc(C2CC(n3nnnc3-c3ccccc3)=NN2)cc1 (configuration not stated)	2.82 µM	25.1 µM	0.465 µM	12.5 µM	1.44 µM	22.4 µM	0.662 µM	3.12 µM	4.98 µM	22.8 µM	1.8 µM	36.3 µM	3.5 µM	11.7 µM	2.16 µM	26.2 µM	12.8 µM	45.8 µM		
Cn1cc(CNCC2CCN(c3ncc(C(=O)NO)cn3)CC2)c2ccccc21	0.0147 µM	2.11 µM	0.0118 µM	0.0415 µM	0.0229 µM	0.0962 µM	0.0169 µM	0.188 µM	0.0351 µM	1.09 µM	0.0255 µM	23.4 µM	< 0.0104 µM	0.107 µM	0.144 µM	15.8 µM	0.0128 µM	0.838 µM	0.0123 µM	0.519 µM
OC12CC/C(=N/OCc3ccccc3)CC1c1ccccc12 (configuration not stated)				> 100 µM		> 100 µM		> 100 µM		> 100 µM		> 100 µM		> 100 µM		> 100 µM		> 100 µM		> 100 µM
C=C1C(=O)OC2/C=C(\C=O)CC/C=C(\C)C(O)C[C@@H]12 (some centres not stated)		10.9 µM		18.5 µM		19.9 µM		28.3 µM		43.9 µM		29.1 µM		15.3 µM		14.9 µM		61.3 µM		33.9 µM
C1=CC=C2NCCOCCNC3=CC=CC=CC3=NCCOCCN=C2C=C1		> 100 µM		> 100 µM		> 100 µM		> 100 µM		> 100 µM		> 100 µM		> 100 µM		> 100 µM		> 100 µM		> 100 µM

Reference: PubChem BioAssay (NCI)
